According to ChEMBL document CHEMBL1201862, “PubChem BioAssay data set” (2004):
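How tested: cells in 96-well plates exposed to compound for 48 hours at five concentrations. Abbreviation: GI50, concentration required for 50% inhibition of growth.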 Active and inactive are the calls of the source. Rule as the data show it: active = GI50 up to about 1.1 µM and inactive = higher.

Key:
Experiment in all cases: DTP human tumour cell line panel, 48 h
786-0 = test system: 786-0
A498 = test system: A498
A549 = test system: A549
ACHN = test system: ACHN
BT-549 = test system: BT-549
CAKI-1 = test system: CAKI-1
CCRF-CEM = test system: CCRF-CEM
COLO 205 = test system: COLO 205
DU-145 = test system: DU-145
EKVX = test system: EKVX
HCC 2998 = test system: HCC 2998
HCT-116 = test system: HCT-116
HCT-15 = test system: HCT-15
HL-60 = test system: HL-60
HOP-62 = test system: HOP-62
HOP-92 = test system: HOP-92
HT-29 = test system: HT-29
Hs-578T = test system: Hs-578T
IGROV-1 = test system: IGROV-1
K562 = test system: K562
KM12 = test system: KM12
LOX IMVI = test system: LOX IMVI
M14 = test system: M14
MCF7 = test system: MCF7
MDA-MB-231 = test system: MDA-MB-231
MDA-MB-435 = test system: MDA-MB-435
MDA-N = test system: MDA-N
MOLT-4 = test system: MOLT-4
Malme-3M = test system: Malme-3M
NCI-H226 = test system: NCI-H226
NCI-H23 = test system: NCI-H23
NCI-H460 = test system: NCI-H460
NCI-H522 = test system: NCI-H522
NCI/ADR-RES = test system: NCI/ADR-RES
OVCAR-3 = test system: OVCAR-3
OVCAR-4 = test system: OVCAR-4
OVCAR-5 = test system: OVCAR-5
OVCAR-8 = test system: OVCAR-8
PC-3 = test system: PC-3
RXF 393 = test system: RXF 393
SF-268 = test system: SF-268
SF-295 = test system: SF-295
SF-539 = test system: SF-539
SK-MEL-28 = test system: SK-MEL-28
SK-MEL-2 = test system: SK-MEL-2
SK-MEL-5 = test system: SK-MEL-5
SK-OV-3 = test system: SK-OV-3
SN12C = test system: SN12C
SNB-19 = test system: SNB-19
SNB-75 = test system: SNB-75
SR = test system: SR
SW-620 = test system: SW-620
T47D = test system: T47D
TK-10 = test system: TK-10
U-251 = test system: U-251
UACC-257 = test system: UACC-257
UACC-62 = test system: UACC-62
UO-31 = test system: UO-31

COC(=O)C1=C(C(=O)OC)SC2(S1)C(C(=O)OC)=C(C(=O)OC)Sc1c2ss/c1=N\c1ccc(Cl)cc1
GI50 (786-0): 516 nM (active) | GI50 (A498): 1770 nM (inactive) | GI50 (A549): 1560 nM (inactive) | GI50 (ACHN): 1400 nM (inactive) | GI50 (BT-549): 1910 nM (inactive) | GI50 (CAKI-1): 733 nM (active) | GI50 (CCRF-CEM): 197 nM (active) | GI50 (COLO 205): 774 nM (active) | GI50 (DU-145): 479 nM (active) | GI50 (EKVX): 1450 nM (inactive) | GI50 (HCC 2998): 325 nM (active) | GI50 (HCT-116): 283 nM (active) | GI50 (HCT-15): 318 nM | GI50 (HL-60): 1110 nM (active) | GI50 (HOP-62): 1670 nM (inactive) | GI50 (HOP-92): 638 nM (active) | GI50 (HT-29): 525 nM (active) | GI50 (Hs-578T): 2840 nM (inactive) | GI50 (IGROV-1): 1140 nM (inactive) | GI50 (K562): 1310 nM (inactive) | GI50 (KM12): 767 nM (active) | GI50 (LOX IMVI): 339 nM (active) | GI50 (M14): 1430 nM (inactive) | GI50 (MCF7): 1110 nM (active) | GI50 (MDA-MB-231): 948 nM (active) | GI50 (MDA-MB-435): 794 nM (active) | GI50 (MDA-N): 470 nM (active) | GI50 (MOLT-4): 336 nM (active) | GI50 (Malme-3M): 1830 nM (inactive) | GI50 (NCI-H226): 1790 nM (inactive) | GI50 (NCI-H23): 1830 nM (inactive) | GI50 (NCI-H460): 333 nM (active) | GI50 (NCI-H522): 352 nM (active) | GI50 (NCI/ADR-RES): 1840 nM (inactive) | GI50 (OVCAR-3): 1390 nM (inactive) | GI50 (OVCAR-4): 1180 nM (inactive) | GI50 (OVCAR-5): 1450 nM (inactive) | GI50 (OVCAR-8): 1320 nM (inactive) | GI50 (PC-3): 440 nM (active) | GI50 (RXF 393): 256 nM (active) | GI50 (SF-268): 1130 nM (inactive) | GI50 (SF-295): 2190 nM (inactive) | GI50 (SF-539): 510 nM (active) | GI50 (SK-MEL-28): 1700 nM (inactive) | GI50 (SK-MEL-2): 325 nM (active) | GI50 (SK-MEL-5): 1390 nM (inactive) | GI50 (SK-OV-3): 2000 nM (inactive) | GI50 (SN12C): 552 nM (active) | GI50 (SNB-19): 1530 nM (inactive) | GI50 (SNB-75): 1070 nM (active) | GI50 (SR): 277 nM (active) | GI50 (SW-620): 425 nM (active) | GI50 (T47D): 1060 nM (active) | GI50 (TK-10): 1400 nM (inactive) | GI50 (U-251): 1350 nM (inactive) | GI50 (UACC-257): 1100 nM (active) | GI50 (UACC-62): 1190 nM (inactive) | GI50 (UO-31): 804 nM (active)
